Some test systems named below: OVCAR-3 ovarian; T-47D breast; NCI-H226 lung; OVCAR-5 ovarian; SW-620 colon; SNB-19 CNS; HCT-15 colon; NCI-H460 lung.
Holding throughout (test): NCI tumour cell line growth inhibition, 48 h

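Compound exposure: 48 hours, 5 concentrations, 96-well plates. GI50 = concentration required for 50% inhibition of growth. TGI denotes the concentration required for complete inhibition of growth.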 *1 amine or outer side, *2 acyl side, *3 side chain or, on linkers, in order; H or OH if unused. Where a SMILES comes first, the peptide text is derived from it. [ ]: non-standard residue; d: D form. ξ: configuration not given here. X21 = CC[C@@H](C)C(N[*:1])C(=O)[*:2]; ξR = N=C(N)NCCCC(N)C(=O)O; ξI = CCC(C)C(N)C(=O)O; ξL = CC(C)CC(N)C(=O)O; ξK = NCCCCC(N)C(=O)O; ξV = CC(C)C(N)C(=O)O; ξA = CC(N)C(=O)O A value given as a limit tells only on which side of the number the result lay.

Regarding `OCc1ccc(N(CCN2CCCC2)Cc2ccc(F)cc2)cc1Cl`, the GI50 is 19.5 µM in the assay on OVCAR-3 ovarian; 19 µM with T-47D breast; 1.39 µM in the assay on NCI-H226 lung; 16 µM in the assay on OVCAR-5 ovarian; 16.7 µM with SW-620 colon; 25 µM in the assay on SNB-19 CNS. For the same molecule, the GI50 with HCT-15 colon was 18.6 µM; in the assay with NCI-H460 lung it was 3.47 µM. Besides, the TGI turned out to be 36.6 µM with OVCAR-3 ovarian; 49.2 µM in the assay with T-47D breast; 3.85 µM with NCI-H226 lung; 40.5 µM in the assay on OVCAR-5 ovarian; 32.9 µM with SW-620 colon; 82.1 µM in the assay on SNB-19 CNS. The TGI in the assay on HCT-15 colon came to 50.1 µM; with NCI-H460 lung, 13.9 µM.
For `COC1=C(Br)C(=O)C2=C(C1=O)C1C3=C(C(=O)C=CC3=O)C2c2ccccc21` (stereo unspecified), the GI50 in the assay on OVCAR-3 ovarian is 5.43 µM; with T-47D breast, 3.16 µM; in the assay with NCI-H226 lung it was 21 µM; with OVCAR-5 ovarian it was 22.3 µM; with SW-620 colon, 4.56 µM; in the assay with SNB-19 CNS it was 16.6 µM. Moreover, the GI50 in the assay on HCT-15 colon is 20 µM; in the assay with NCI-H460 lung it was 33.3 µM. The TGI is 28.3 µM with OVCAR-3 ovarian; 21.7 µM in the assay on T-47D breast; 46.4 µM in the assay on NCI-H226 lung; 98.6 µM with OVCAR-5 ovarian; > 100 µM with SW-620 colon; 43.3 µM in the assay on SNB-19 CNS. The TGI in the assay on HCT-15 colon is 42.6 µM; in the assay on NCI-H460 lung, > 100 µM.
For the molecule `Cc1ccc(Sc2sc(-c3ccccc3)nc2[P+](c2ccccc2)(c2ccccc2)c2ccccc2)cc1`, the GI50 with OVCAR-3 ovarian was 0.346 µM; with OVCAR-5 ovarian, 0.4 µM; in the assay on SW-620 colon, 0.319 µM; in the assay on SNB-19 CNS, 0.33 µM; in the assay with HCT-15 colon, 0.3 µM; with NCI-H460 lung, 0.314 µM. Also, the TGI with OVCAR-3 ovarian turned out to be 1.23 µM; with OVCAR-5 ovarian, 1.45 µM; in the assay on SW-620 colon it was 1.26 µM; with SNB-19 CNS, 1.33 µM; in the assay on HCT-15 colon, 1.14 µM; in the assay with NCI-H460 lung, 1.09 µM.
Turning to `O=C(Nc1cccc(-n2cc(-c3ccncc3)c(-c3ccc(O)c(Cl)c3)n2)c1)Nc1cccc(C(F)(F)F)c1`, the GI50 is 1.97 µM in the assay on T-47D breast; 2.52 µM in the assay with NCI-H226 lung; 3.5 µM in the assay with OVCAR-5 ovarian; 2.66 µM in the assay on SW-620 colon; 2.88 µM with SNB-19 CNS; 2.24 µM with HCT-15 colon. Besides, the GI50 in the assay on NCI-H460 lung was 2.64 µM. Also, the TGI in the assay on T-47D breast is 7.3 µM; in the assay with NCI-H226 lung it was 9.02 µM; in the assay on OVCAR-5 ovarian, 36.3 µM; in the assay with SW-620 colon, 8.21 µM; with SNB-19 CNS, 46.2 µM; in the assay on HCT-15 colon, 10.2 µM.
Take `Cc1cc(N(CCCl)CCCl)ccc1/C=N/NC(=O)Cc1cc(=O)oc2cc(O)ccc12`: the TGI in the assay on OVCAR-3 ovarian turned out to be 72.8 µM; in the assay with T-47D breast it was 56.9 µM; in the assay on NCI-H226 lung, 43.2 µM; in the assay on OVCAR-5 ovarian, 93.7 µM; with SW-620 colon, 66.9 µM; in the assay on SNB-19 CNS it was 41 µM. Besides, the TGI is > 100 µM with HCT-15 colon and 30.5 µM in the assay with NCI-H460 lung.
`CNCCCNCCCN1C(=O)c2ccc3c4c(ccc(c24)C1=O)C(=O)N(CCCNCc1ccccc1OC)C3=O`: the GI50 was 1.37 µM in the assay with OVCAR-3 ovarian; 1.25 µM in the assay with T-47D breast; 1.42 µM in the assay on NCI-H226 lung; 1.25 µM in the assay on OVCAR-5 ovarian; 0.365 µM with SW-620 colon; 1.68 µM in the assay with SNB-19 CNS. In addition, the values for the GI50 with HCT-15 colon and with NCI-H460 lung were 2.36 µM and 0.429 µM, respectively. For the same molecule, the TGI amounted to 9.23 µM with OVCAR-3 ovarian; 4.1 µM with T-47D breast; 4.63 µM with NCI-H226 lung; 4.14 µM in the assay on OVCAR-5 ovarian; 5.12 µM in the assay on SW-620 colon; 11.1 µM in the assay on SNB-19 CNS. The TGI with HCT-15 colon was 12.2 µM; in the assay on NCI-H460 lung it was 2.86 µM.
Consider `CCOC(=O)Nc1nc2c(C)cccc2s1`, for which the GI50 in the assay with OVCAR-3 ovarian was 41.8 µM; in the assay with T-47D breast it was 47.4 µM; in the assay on NCI-H226 lung, > 100 µM; in the assay on OVCAR-5 ovarian, 66.8 µM; with SW-620 colon, 64.7 µM; in the assay on SNB-19 CNS it was > 100 µM. The results for the GI50 with HCT-15 colon and in the assay with NCI-H460 lung were 44.3 µM and 70.8 µM, respectively. Also, the TGI in the assay with OVCAR-3 ovarian, in the assay with T-47D breast, with NCI-H226 lung, in the assay on OVCAR-5 ovarian, with SW-620 colon and with SNB-19 CNS was > 100 µM in each case. Further, the TGI in the assay with HCT-15 colon and in the assay with NCI-H460 lung was > 100 µM throughout.
Turning to `Clc1ccc(Nc2ccnc(NCCCNc3ccnc4cc(Cl)ccc34)n2)cc1`, in the assay with OVCAR-5 ovarian, the GI50 was 1.68 µM and the TGI was found to be 3.09 µM. In the assay with SW-620 colon, the GI50 is 1.49 µM and the TGI turned out to be 3.11 µM.
As to `N#Cc1ccc2c(c1)C(=O)c1c-2n(CCCN)c(=O)c2cc([N+](=O)[O-])ccc12`, the GI50 is 0.705 µM with OVCAR-5 ovarian; 0.0291 µM with SW-620 colon; 0.146 µM in the assay with SNB-19 CNS; 0.411 µM in the assay with HCT-15 colon; 0.0462 µM in the assay on NCI-H460 lung. Also, the TGI in the assay with OVCAR-5 ovarian is 1.86 µM; with SW-620 colon, 0.568 µM; with SNB-19 CNS, 1.54 µM; in the assay with HCT-15 colon it was 1.83 µM; in the assay with NCI-H460 lung it was 1.14 µM.
As for `CCNCCCn1c2c(c3ccc([N+](=O)[O-])cc3c1=O)C(=O)c1cc(OC)cnc1-2`, the GI50 with OVCAR-3 ovarian is 0.0616 µM; in the assay with T-47D breast it was 0.036 µM; in the assay on OVCAR-5 ovarian it was 0.176 µM; with SW-620 colon, 0.0653 µM; in the assay with SNB-19 CNS it was 0.0576 µM; with HCT-15 colon, 0.184 µM. Moreover, the GI50 in the assay with NCI-H460 lung is 0.0321 µM. The TGI with OVCAR-3 ovarian is 0.302 µM; with T-47D breast, 12 µM; with OVCAR-5 ovarian it was 0.675 µM; with SW-620 colon, 3.57 µM; in the assay on SNB-19 CNS, 2.53 µM; in the assay on HCT-15 colon it was 1.26 µM. This molecule yielded a TGI with NCI-H460 lung of 0.376 µM.
As to `COc1ccc(N(/C=C/C(=O)C(F)(F)F)CC(=O)c2ccc(Cl)c(Cl)c2)cc1`, the GI50 with OVCAR-3 ovarian is 15.6 µM; with T-47D breast, 18.9 µM; with NCI-H226 lung it was 18.5 µM; with OVCAR-5 ovarian, 16.5 µM; with SW-620 colon, 27 µM; in the assay on HCT-15 colon, 7.66 µM. Also, in the assay with NCI-H460 lung, the GI50 is 6.73 µM. Moreover, the TGI was 29.3 µM in the assay on OVCAR-3 ovarian; 48.3 µM in the assay with T-47D breast; 37.9 µM with NCI-H226 lung; 30.2 µM with OVCAR-5 ovarian; > 100 µM in the assay on SW-620 colon; 21.4 µM in the assay on HCT-15 colon. In the assay on NCI-H460 lung, the TGI came out at 27.3 µM.
As to `Cc1cc2cn3c4cccnc4[nH]c(=O)c3c2cc1C`, the GI50 is 1.77 µM with OVCAR-3 ovarian; 1.84 µM with T-47D breast; 11.2 µM in the assay with NCI-H226 lung; 1.66 µM with OVCAR-5 ovarian; 1.09 µM in the assay on SW-620 colon; 1.41 µM with HCT-15 colon. Moreover, the TGI in the assay on OVCAR-3 ovarian stood at 3.22 µM; with T-47D breast, 4 µM; in the assay on NCI-H226 lung, 28 µM; with OVCAR-5 ovarian it was 3.02 µM; in the assay with SW-620 colon it was 2.47 µM; in the assay on HCT-15 colon, 2.87 µM.
Consider `CC(C)c1ccc(NC(=S)NC(=O)c2ccccc2)cc1`, for which the TGI in the assay with OVCAR-3 ovarian was 38.3 µM; in the assay with T-47D breast, 77.2 µM; with OVCAR-5 ovarian, > 100 µM; in the assay with SW-620 colon, 62.8 µM; in the assay with SNB-19 CNS, > 100 µM; in the assay with HCT-15 colon it was 40.7 µM. In the assay with NCI-H460 lung, this molecule returned a TGI of 40.2 µM.
In the case of `O=C1CS/C(=N\S(=O)(=O)c2ccc(N3N=C4c5ccccc5CC4C3c3ccc(Cl)cc3)cc2)N1c1ccccc1` (stereo unspecified), the GI50 was 48.5 µM with OVCAR-3 ovarian; 41.7 µM in the assay with T-47D breast; 45.1 µM with NCI-H226 lung; 37.4 µM in the assay on SW-620 colon; 23.3 µM with SNB-19 CNS; 34.8 µM with HCT-15 colon. Further, the GI50 in the assay on NCI-H460 lung is 19.7 µM. The TGI in the assay with OVCAR-3 ovarian, with T-47D breast, with NCI-H226 lung, in the assay with SW-620 colon, with SNB-19 CNS and with HCT-15 colon was > 100 µM each time. Moreover, the TGI in the assay on NCI-H460 lung turned out to be 48.9 µM.
With `CCC(C)C1NC(=O)C(CC(C)C)NC(=O)C(C)NC(=O)C(C(C)C)NC(=O)C(CCCCN)NC(=O)C(CC(C)C)NC(=O)C(C(C)C)NC(=O)[C@H](C)NC(=O)C(C(C)CC)NC(=O)C(CCCN=C(N)N)NC(=O)C(CCCCN)NC(=O)C(CCCN=C(N)N)NC(=O)C(CCCCN)NC(=O)C([C@H](C)CC)NC(=O)C(CCCCN)NC1=O` (stereo partly specified) (cyclo(A[ξV][ξL][ξK][ξV][ξA][ξL][ξI][ξK][X21][ξK][ξR][ξK][ξR][ξI])), the GI50 was 1.2 µM with OVCAR-3 ovarian; 0.756 µM in the assay with T-47D breast; 1.94 µM with OVCAR-5 ovarian; 1.56 µM with SW-620 colon; 2.07 µM with SNB-19 CNS; 1.48 µM in the assay with HCT-15 colon. In addition, in the assay with NCI-H460 lung, the GI50 is 1.57 µM. Also, the TGI in the assay on OVCAR-3 ovarian was 2.87 µM; in the assay with T-47D breast it was 4.28 µM; in the assay on OVCAR-5 ovarian, 7.16 µM; in the assay with SW-620 colon, 3.39 µM; with SNB-19 CNS, 10.1 µM; in the assay with HCT-15 colon it was 3.58 µM. In addition, in the assay on NCI-H460 lung, the TGI is 3.49 µM.
